Read-outs that look alike come from different tables or passages of the source.
How the values were obtained:
[1] = tested on: DENV (New Guinea C); format: cell-based, Dengue virus; settings: read-out: DENV EC50: effective concentration showing 50% inhibition of virus-induced CPE
[2] = tested on: ZIKV (MR766); format: cell-based, Zika virus; settings: read-out: ZIKV EC50
[3] = tested on: YFV (17D); format: cell-based, Yellow Fever Virus; settings: read-out: YFV EC50
[4] = tested on: Ebola (EBOV) virus; settings: cited from earlier work
[5] = tested on: SARS; settings: read-out: activity against SARS; cited from earlier work
[6] = target: ZIKV NS5-MTase (Zika virus, UniProt A0A024B7W1); test: radioactive filter-binding 2'-O-MTase assay, ZIKV; format: biochemical; settings: 50 µM compound
[7] = target: human N7 (RNMT) MTase (Homo sapiens, UniProt O43148); format: biochemical; settings: 50 µM
[8] = preliminary minimum tolerated dose; format: in vivo
[9] = target: T1, DENV NS5-MTase (Dengue virus type 3, UniProt Q6YMS4); test: radioactive filter-binding 2'-O-MTase assay, DENV; format: biochemical, DENV-3; settings: 50 µM compound
T1 sequence (Q6YMS4 2492-2753 limits assumed): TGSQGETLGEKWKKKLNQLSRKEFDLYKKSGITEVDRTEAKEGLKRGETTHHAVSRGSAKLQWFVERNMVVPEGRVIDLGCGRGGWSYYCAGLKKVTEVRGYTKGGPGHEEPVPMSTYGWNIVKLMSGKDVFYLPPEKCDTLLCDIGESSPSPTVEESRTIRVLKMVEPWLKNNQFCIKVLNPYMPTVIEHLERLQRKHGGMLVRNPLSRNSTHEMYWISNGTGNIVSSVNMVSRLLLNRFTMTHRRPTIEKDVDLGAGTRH

[10] = tested on: Ebola (EBOV) virus; format: cell-based; settings: read-out: EC50 against EBOV

Sequence of human N7 (RNMT) MTase (O43148 whole entry): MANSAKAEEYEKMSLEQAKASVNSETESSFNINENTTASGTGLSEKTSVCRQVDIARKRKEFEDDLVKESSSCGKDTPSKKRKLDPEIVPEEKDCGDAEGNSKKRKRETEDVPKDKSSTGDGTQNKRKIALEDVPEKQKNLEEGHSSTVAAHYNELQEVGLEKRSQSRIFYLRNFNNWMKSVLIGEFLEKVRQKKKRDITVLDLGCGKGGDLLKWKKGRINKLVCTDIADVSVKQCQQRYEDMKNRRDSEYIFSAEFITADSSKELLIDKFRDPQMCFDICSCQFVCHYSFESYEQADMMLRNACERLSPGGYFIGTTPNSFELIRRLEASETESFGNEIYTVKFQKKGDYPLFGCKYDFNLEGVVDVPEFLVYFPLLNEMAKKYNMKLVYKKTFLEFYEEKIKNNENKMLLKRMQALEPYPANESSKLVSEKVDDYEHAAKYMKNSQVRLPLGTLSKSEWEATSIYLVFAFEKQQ
Sequence of ZIKV NS5-MTase (A0A024B7W1 2521-2785 limits assumed): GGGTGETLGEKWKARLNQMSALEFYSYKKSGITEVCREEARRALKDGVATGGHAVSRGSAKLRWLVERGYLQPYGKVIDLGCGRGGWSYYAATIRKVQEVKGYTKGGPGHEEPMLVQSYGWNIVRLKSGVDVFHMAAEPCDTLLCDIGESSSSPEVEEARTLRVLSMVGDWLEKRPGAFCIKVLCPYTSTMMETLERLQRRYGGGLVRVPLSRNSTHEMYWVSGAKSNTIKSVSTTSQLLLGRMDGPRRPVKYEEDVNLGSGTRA

Row | Substance | EC50 [1] | EC50 [2] | EC50 [3] | activity against Ebola (EBOV) virus [4] | EC50 [5] | Percent inhibition of ZIKV MTase [6] | inhibition of human N7 MTase activity [7] | minimum tolerated dose (MTD) studies: no toxicity up to [8] | Percent inhibition of DENV MTase [9] | EC50 ([4]; read-out: EC50 against Ebola (EBOV) virus) | EC50 [10]
1 | 2-ethylbutyl((2-((4-(2-amino-4-methoxypyrimidin-5-yl)-1H-imidazol-1-yl)methoxy)-ethoxy)-(phenoxy)phosphoryl)alaninate [Compound 1-MG] | > 57 µM | > 31 µM | > 55 µM | active | – | – | – | – | – | – | –
2 | 2-((4-(2-amino-4-methoxypyrimidin-5-yl)-1H-imidazol-1-yl)methoxy)ethyl acetate [Compound 1-Ac] | 6.1 µM | > 100 µM | > 57 µM | active | 11.9 µM | – | – | – | – | – | –
3 | 2-((4-(2,4-dimethoxypyrimidine-5-yl)-1H-imidazol-1-yl) methoxy)ethan-1-ol [Compound 2] | > 50 µM | > 76 µM | > 58 µM | – | – | – | – | – | – | – | –
4 | 2-((4-(2-amino-4-methoxypyrimidin-5-yl)-1H-imidazol-1-yl) methoxy)ethan-1-ol [Compound 1] | 0.057 µM | – | 0.37 µM | active | – | did not exhibit a significant inhibitory effect | did not exhibit a significant inhibitory effect | ≥ 250 mgs/kg | did not exhibit a significant inhibitory effect | 2.2 ± 0.3 µM | –
5 | 2-((4–2,4-dimethoxypyrimidin-5-yl)-1H-imidazol-1-yl)methoxy) ethyl acetate [Compound 2-Ac] | 19 µM | – | > 58 µM | – | – | – | – | – | – | – | 8.2 ± 1.8 µM
6 | 2-ethylbutyl ((2-((4-(2,4-dimethoxypyrimidin-5-yl)-1H-imidazol-1-yl)methoxy)ethoxy)-(phenoxy)-phosphoryl)alaninate [Compound 2-MG] | > 53 µM | > 56 µM | > 53 µM | – | – | – | – | – | – | – | –
